Patent publication US10028961B2, “Therapeutically active compounds and their methods of use” (AGIOS PHARMACEUTICALS, INC., priority 2013, dated 2018)
Where two headings read alike, the source gives them in different places.

Legend:
[1] = molecular target: IDH1 wt/IDH1 R132H heterodimer (Homo sapiens (Human), UniProt O75874, R132H); assay: In vitro assay for IDH1m R132H inhibitors, IDH1 wt/IDH1 R132H heterodimer, NADPH depletion (diaphorase/resazurin); assay type: biochemical
Description: The following describes the experimental procedures that can be used to obtain data on columns 2 and 4 of Table 4 and column 2 of Table 5.
In the primary reaction, the reduction of α-KG acid to 2-HG is accompanied by a concomitant oxidation of NADPH to NADP. The amount of NADPH remaining at the end of the reaction time is measured in a secondary diaphorase/resazurin reaction in which the NADPH is consumed in a 1:1 molar ratio with the conversion of resazurin to the highly fluorescent resorufin.
The mixture of compound, enzyme, and cofactor is pre-incubated at room temperature for 1 hr prior to the addition of alpha-ketoglutarate. To perform the secondary reaction, 10 uL of 1× buffer containing 36 μg/ml diaphorase and […] resazurin is added to the primary reaction and incubated for a further 5 minutes at 25° C. […] Compounds or compound dilutions are prepared in 100% DMSO concentration and diluted 1:50 into the final reaction. […] IC50s are determined.
IDH1 or IDH2 wildtype (wt) and mutant heterodimers are expressed and purified by methods known in the art. […] Co-expression of IDH1wt-his and IDH1R132C-flag is carried out in sf9 insect cells. Cells (25 g) are resuspended in 250 ml of 50 mM Tirs, 500 mM NaCl, pH7.4, at 4° C. with stirring. Cells are disrupted with 4 passes through an M-Y110 Micro fluidizer (Microfluidics) set to 500 psi, and then centrifuged at 22,000 rcf for 20 min at 4° C. The supernatant is harvested and loaded at 15 cm/h on a Histrap FF 5*1 ml column (GE) which is equilibrated with 50 mM Tirs, 500 mM NaCl, pH7.4. Host cell contaminants are removed by washing the column with equilibration buffer followed by equilibration buffer containing 20 mM imidazole and 60 mM imidazole to baseline. IDH1wt-his homodimer and IDH1wt-his/IDH1R132C-flag are eluted by equilibration buffer containing 250 mM imidazole. Fractions eluted by 250 mM imidazole are pooled together and loaded at 15 cm/h onto a column pre-packed with 10 ml ANTI-FLAG® M2 Affinity Gel (Sigma), the column is equilibrated with 50 mM Tris, 500 mM NaCl, pH7.4. After washing with equilibration buffer, IDH1wt-his/IDH1R132C-flag heterodimer is eluted by equilibration buffer containing flag peptide (0.2 mg/ml). Aliquots of IDH1wt-his/IDH1R132C-flag are flash frozen in liquid N2 and stored at −80° C. Same conditions are used for the purification of IDH1wt-his/IDH1R132H-flag.

IDH2 R140Q = IDH2 R140Q (Homo sapiens (Human), UniProt P48735, R140Q); assay: In vitro assay for IDH2m R140Q inhibitors, cofactor depletion assay; assay type: biochemical; conditions: IDH2 R140Q enzyme
Text: The following describes the experimental procedures used to obtain data on column 7 of Table 4.
The reaction is terminated by the addition of a second enzyme, diaphorase, and a corresponding substrate, resazurin. Diaphorase reduces resazurin to the highly fluorescent resorufin with the concomitant oxidation of NADPH to NADP, both halting the IDH2 reaction by depleting the available cofactor pool and facilitating quantitation of the amount of cofactor remaining after a specific time period through quantitative production of an easily detected fluorophore.
The test compound is then incubated for one hour at room temperature with the enzyme; before starting the IDH2 reaction with the addition of 10 μl of substrate mix containing 4 μM NADPH and 1.6 mM α-KG in the buffer described above. After a further 16 hours of incubation at room temperature, the reaction is halted and the remaining NADPH measured through conversion of resazurin to resorufin by the addition of 25 μl Stop Mix (36 μg/ml diaphorase enzyme and 60 μM resazurin; in buffer).

[2] = test system: U87MG pLVX-IDH2 R140Q-neo cells; assay: U87MG pLVX-IDH2 R140Q-neo cell based assay, 2-HG by LC-MS; conditions: Homo sapiens, U-87 MG
[3] = IDH1 wt/IDH1 R132H heterodimer, 300 μM NADP (saturated), read-out: IDH1 wt/R132H NADPH/NADP IC50 saturated
[4] = IDH1 wt/R132H heterodimer, NADPH/NADP, not saturated, read-out: IDH1 wt/R132H NADPH/NADP IC50 not saturated

Sequence of IDH1 wt/IDH1 R132H heterodimer (O75874 whole entry R132H): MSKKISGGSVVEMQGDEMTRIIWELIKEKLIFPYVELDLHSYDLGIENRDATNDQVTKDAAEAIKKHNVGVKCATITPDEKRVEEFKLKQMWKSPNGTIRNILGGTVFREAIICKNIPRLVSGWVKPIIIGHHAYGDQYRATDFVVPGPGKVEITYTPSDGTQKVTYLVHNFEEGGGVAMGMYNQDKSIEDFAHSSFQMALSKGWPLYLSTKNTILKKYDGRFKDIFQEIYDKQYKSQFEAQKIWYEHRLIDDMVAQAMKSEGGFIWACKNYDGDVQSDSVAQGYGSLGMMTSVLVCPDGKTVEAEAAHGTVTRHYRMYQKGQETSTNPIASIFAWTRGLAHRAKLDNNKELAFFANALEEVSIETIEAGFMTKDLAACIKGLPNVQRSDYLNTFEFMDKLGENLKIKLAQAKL
Sequence of IDH1 wt/IDH1 R132H heterodimer (O75874 whole entry, stated change not applied): as the sequence (O75874 whole entry R132H) above, with H132R counted along it
Sequence of IDH2 R140Q (P48735 40-452 R140Q): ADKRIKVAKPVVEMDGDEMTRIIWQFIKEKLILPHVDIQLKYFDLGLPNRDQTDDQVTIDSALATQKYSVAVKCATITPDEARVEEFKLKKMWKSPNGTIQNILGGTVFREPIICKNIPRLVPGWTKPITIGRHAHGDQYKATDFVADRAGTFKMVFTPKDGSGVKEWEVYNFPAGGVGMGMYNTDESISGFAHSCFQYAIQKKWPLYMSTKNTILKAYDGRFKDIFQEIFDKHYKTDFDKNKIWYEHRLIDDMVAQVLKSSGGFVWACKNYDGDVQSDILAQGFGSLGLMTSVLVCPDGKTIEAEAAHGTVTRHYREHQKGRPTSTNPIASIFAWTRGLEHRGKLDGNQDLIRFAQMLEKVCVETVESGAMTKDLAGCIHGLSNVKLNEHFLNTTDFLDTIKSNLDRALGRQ

| Compound | IC50 [1, 3] [nM] | IC50 (IDH2 R140Q) [nM] | IC50 [2] [nM] | IC50 [1, 4] [nM] |
| --- | --- | --- | --- | --- |
| CC(C)CNc1nc(NCC(C)C)nc(-c2cccc(N)n2)n1 [Compound 74, 6-(6-aminopyridin-2-yl)-N^2,N^4-diisobutyl-1,3,5-triazine-2,4-diamine] |  | < 50 | 50 to 100 |  |
| CC(C)(O)CNc1nc(Nc2ccnc(C3(C#N)CC3)c2)nc(-c2cccc(C(F)(F)F)n2)n1 [Compound 259] |  | < 50 | < 50 | 100 to 1000 |
| COCCC(C)Nc1nc(N[C@H](C)C2CC2)nc(-c2cccc(C(F)(F)F)n2)n1 (stereo partly shown) [Compound 233] |  |  |  | < 50 |
| CC(C)CNc1nc(NC2CCOCC2)nc(-c2cccc(C(F)(F)F)n2)n1 [Compound 75] |  | 50 to 100 | < 50 |  |
| COc1cccc(-c2nc(N[C@H](C)C3CC3)nc(N[C@H](C)C3CC3)n2)n1 [Compound 294] |  |  |  | 100 to 1000 |
| C[C@@H](Nc1nc(N[C@H](C)C2CC2)nc(-c2cccc(N)n2)n1)C1CC1 [Compound 285] |  | > 1000 | > 1000 | 100 to 1000 |
| C[C@H](CO)Nc1nc(N[C@H](C)C2CC2)nc(-c2cccc(C(F)(F)F)n2)n1 [Compound 281] |  |  |  | 100 to 1000 |
| OC1CCCC1Nc1nc(NC2CCCC2O)nc(-c2cccc(Cl)n2)n1 (stereo not shown) [Compound 290] |  |  |  | 100 to 1000 |
| CC(C)(C)CNc1nc(NCC(C)(C)C)nc(-c2cccc(N)n2)n1 [Compound 73, 6-(6-aminopyridin-2-yl)-N^2,N^4-dineopentyl-1,3,5-triazine-2,4-diamine] |  | < 50 | 50 to 100 |  |
| C=CCCNc1nc(NCCC=C)nc(-c2ccccc2)n1 [Compound 70] |  |  | 50 to 100 |  |
| CC(C)(O)CNc1nc(Nc2ccnc(C#N)c2)nc(-c2cccc(C(F)(F)F)n2)n1 [Compound 288] |  | 100 to 1000 | 100 to 1000 | 100 to 1000 |
| C[C@@H](Nc1nc(NC2Cc3ccccc3C2)nc(-c2cccc(C(F)(F)F)n2)n1)C1CC1 [Compound 60] |  |  |  | < 50 |

Second part, the compound after the results:

| IC50 [1, 3] [nM] | IC50 (IDH2 R140Q) [nM] | IC50 [2] [nM] | IC50 [1, 4] [nM] | Compound |
| --- | --- | --- | --- | --- |
| > 1000 | < 50 | < 50 |  | N#CC1(c2cc(Nc3nc(N[C@H]4CCC(F)(F)C4)nc(-c4nccc(C(F)(F)F)n4)n3)ccn2)CC1 [Compound 376] |
| 100 to 1000 | < 50 | < 50 |  | CC(C)(O)CNc1nc(Nc2cc(F)cc(C#N)c2)nc(-c2cccc(C(C)(F)F)n2)n1 [Compound 398] |
|  |  |  | > 1000 | Fc1ccc(N2CC(Nc3nc(NC4CCC(F)(F)C4)nc(-c4cccc(C(F)(F)F)n4)n3)C2)cc1 (stereo not shown) [Compound 313] |
|  |  |  | > 1000 | Cn1c(Nc2nc(NC3CCC(F)(F)C3)nc(-c3cccc(C(F)(F)F)n3)n2)cc2ccccc21 (stereo not shown) [Compound 316] |
| 100 to 1000 | < 50 | < 50 |  | FC1(F)CC[C@H](Nc2nc(Nc3ccnc(C(F)(F)F)c3)nc(-c3ccnc(C(F)(F)F)n3)n2)C1 [Compound 343] |
|  |  |  | > 1000 | C[C@@H](Nc1nc(N[C@H](C)C2CC2)nc(-c2cccc(OC(F)(F)F)c2)n1)C1CC1 [Compound 322] |
|  |  |  | > 1000 | Cc1nc(-c2nc(NC3CCC(F)(F)CC3)nc(NC3CCC(F)(F)CC3)n2)co1 [Compound 324] |
